For this assay, the target named is calcium channels in N1E115 mouse neuroblastoma cells (Mus musculus, UniProt O55017). Type of assay: cell-based.

Bridge positions count the residues as written; N and C are the ends. Square brackets hold non-standard residues; d marks the D form. Peptide text beside a SMILES is read from it. Hyp = O=C(O)[C@@H]1C[C@@H](O)CN1

calcium channels in N1E115 mouse neuroblastoma cells, sequence (O55017 whole entry): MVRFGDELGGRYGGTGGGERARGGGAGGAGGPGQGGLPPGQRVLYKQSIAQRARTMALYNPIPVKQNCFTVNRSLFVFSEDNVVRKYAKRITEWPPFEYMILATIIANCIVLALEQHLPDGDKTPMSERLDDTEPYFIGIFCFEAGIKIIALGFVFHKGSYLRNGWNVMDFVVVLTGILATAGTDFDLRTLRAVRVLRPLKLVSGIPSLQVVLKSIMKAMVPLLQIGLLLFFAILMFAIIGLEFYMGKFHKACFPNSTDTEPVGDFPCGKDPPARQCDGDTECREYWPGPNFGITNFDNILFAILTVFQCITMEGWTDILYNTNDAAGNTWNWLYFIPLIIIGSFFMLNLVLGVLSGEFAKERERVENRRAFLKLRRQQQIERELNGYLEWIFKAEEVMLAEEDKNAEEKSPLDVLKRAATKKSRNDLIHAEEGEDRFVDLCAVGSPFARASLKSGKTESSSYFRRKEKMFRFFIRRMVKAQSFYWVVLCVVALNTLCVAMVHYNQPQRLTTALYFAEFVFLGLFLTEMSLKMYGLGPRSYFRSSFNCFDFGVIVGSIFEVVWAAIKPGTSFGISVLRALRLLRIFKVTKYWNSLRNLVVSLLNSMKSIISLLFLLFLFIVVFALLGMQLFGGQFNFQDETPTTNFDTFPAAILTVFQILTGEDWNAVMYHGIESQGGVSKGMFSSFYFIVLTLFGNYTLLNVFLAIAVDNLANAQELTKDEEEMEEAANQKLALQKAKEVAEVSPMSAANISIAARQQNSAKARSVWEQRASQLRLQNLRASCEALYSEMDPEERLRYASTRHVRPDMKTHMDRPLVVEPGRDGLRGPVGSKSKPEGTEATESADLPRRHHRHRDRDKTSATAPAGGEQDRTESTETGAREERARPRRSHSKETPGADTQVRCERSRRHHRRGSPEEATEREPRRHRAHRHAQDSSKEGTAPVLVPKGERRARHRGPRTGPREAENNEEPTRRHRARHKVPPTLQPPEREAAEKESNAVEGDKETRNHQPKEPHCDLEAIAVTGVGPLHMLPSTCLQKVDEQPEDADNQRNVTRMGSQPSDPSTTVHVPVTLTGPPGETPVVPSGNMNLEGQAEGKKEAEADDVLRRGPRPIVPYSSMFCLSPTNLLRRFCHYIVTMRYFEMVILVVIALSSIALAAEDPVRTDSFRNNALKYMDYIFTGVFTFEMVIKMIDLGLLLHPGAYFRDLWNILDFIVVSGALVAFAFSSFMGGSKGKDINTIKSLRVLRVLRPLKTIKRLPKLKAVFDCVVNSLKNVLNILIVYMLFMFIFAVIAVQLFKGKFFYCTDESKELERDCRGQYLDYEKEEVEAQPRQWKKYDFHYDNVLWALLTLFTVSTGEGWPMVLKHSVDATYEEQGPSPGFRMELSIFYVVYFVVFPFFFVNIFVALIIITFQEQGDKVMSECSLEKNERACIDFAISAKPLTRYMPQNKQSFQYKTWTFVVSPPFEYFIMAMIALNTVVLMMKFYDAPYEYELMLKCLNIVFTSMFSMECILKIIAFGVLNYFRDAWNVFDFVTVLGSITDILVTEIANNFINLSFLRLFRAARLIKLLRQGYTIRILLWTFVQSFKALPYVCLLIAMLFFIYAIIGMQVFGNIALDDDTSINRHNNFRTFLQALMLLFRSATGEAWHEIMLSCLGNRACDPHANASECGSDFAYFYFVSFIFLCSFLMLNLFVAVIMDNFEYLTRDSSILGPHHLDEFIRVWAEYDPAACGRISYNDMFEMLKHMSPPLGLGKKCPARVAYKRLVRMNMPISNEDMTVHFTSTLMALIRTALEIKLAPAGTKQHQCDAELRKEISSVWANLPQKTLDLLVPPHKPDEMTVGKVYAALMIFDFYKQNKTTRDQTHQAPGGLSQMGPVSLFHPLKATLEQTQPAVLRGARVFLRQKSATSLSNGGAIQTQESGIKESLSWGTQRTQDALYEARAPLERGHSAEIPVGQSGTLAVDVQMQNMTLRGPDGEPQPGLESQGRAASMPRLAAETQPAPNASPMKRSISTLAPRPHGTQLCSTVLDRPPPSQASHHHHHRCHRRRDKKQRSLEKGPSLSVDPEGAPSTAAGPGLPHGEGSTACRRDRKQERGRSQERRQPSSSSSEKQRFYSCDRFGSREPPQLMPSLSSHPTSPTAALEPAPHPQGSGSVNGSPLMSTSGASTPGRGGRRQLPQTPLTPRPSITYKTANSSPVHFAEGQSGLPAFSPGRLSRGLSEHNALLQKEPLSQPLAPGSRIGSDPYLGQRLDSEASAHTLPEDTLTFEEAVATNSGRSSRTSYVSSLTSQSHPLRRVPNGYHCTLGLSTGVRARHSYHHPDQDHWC
calcium channels in N1E115 mouse neuroblastoma cells, sequence (P54285 whole entry partner): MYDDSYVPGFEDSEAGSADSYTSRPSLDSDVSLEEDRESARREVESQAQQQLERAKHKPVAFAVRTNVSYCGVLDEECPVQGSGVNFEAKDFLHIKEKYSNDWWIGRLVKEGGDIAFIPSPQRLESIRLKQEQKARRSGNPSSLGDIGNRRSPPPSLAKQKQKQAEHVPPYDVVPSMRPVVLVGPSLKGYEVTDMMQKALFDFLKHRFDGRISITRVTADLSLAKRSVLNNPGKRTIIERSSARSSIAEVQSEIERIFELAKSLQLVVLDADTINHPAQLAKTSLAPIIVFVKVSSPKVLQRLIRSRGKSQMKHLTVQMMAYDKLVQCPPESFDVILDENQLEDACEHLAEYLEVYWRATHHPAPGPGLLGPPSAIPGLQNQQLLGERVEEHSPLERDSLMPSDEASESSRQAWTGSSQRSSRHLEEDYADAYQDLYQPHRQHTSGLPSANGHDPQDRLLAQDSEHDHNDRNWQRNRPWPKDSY
calcium channels in N1E115 mouse neuroblastoma cells, sequence (O08532 25-956 partner limits assumed): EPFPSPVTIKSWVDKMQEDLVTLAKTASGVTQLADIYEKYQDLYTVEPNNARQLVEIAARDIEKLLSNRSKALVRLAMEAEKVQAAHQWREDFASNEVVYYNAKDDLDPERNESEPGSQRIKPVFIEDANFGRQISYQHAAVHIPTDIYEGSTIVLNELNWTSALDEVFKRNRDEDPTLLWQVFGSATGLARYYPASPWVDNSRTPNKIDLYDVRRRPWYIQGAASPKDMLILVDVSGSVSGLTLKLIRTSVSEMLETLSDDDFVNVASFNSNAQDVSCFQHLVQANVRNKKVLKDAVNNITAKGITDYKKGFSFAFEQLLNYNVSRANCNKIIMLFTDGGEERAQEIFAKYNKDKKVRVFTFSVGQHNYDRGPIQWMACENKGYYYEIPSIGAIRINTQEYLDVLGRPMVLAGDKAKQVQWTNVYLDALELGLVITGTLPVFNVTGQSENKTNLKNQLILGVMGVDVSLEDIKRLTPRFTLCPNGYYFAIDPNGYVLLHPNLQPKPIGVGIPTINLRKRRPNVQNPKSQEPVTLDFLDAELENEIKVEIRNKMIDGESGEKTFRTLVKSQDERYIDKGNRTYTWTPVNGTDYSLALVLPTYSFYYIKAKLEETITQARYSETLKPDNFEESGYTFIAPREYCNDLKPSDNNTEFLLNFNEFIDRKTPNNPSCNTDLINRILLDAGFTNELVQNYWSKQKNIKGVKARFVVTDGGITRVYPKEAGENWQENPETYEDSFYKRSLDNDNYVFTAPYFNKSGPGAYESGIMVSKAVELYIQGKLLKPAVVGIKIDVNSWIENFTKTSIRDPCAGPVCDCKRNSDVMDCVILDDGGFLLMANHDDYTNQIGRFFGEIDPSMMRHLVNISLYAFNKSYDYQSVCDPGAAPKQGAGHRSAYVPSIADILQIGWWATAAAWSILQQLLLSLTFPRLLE
calcium channels in N1E115 mouse neuroblastoma cells, sequence (O08532 957-1103 partner limits assumed): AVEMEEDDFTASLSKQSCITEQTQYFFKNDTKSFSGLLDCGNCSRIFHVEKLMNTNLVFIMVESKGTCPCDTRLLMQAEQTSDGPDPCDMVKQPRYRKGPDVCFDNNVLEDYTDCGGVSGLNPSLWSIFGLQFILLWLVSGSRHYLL

For the compound `CC[C@H](C)[C@@H]1NC(=O)[C@H](CO)NC(=O)[C@H]([C@@H](C)O)NC(=O)[C@H](C(C)C)NC(=O)CNC(=O)[C@@H]2CSSC[C@@H]3NC(=O)[C@H](CCCNC(=N)N)NC(=O)CNC(=O)[C@H](CSSC[C@H](N)C(=O)N[C@@H](CCCNC(=N)N)C(=O)N[C@@H](CO)C(=O)N[C@@H](CO)C(=O)NCC(=O)N[C@@H](CO)C(=O)N4C[C@H](O)C[C@H]4C(=O)N2)NC(=O)[C@H](CSSC[C@@H](C(=O)N[C@H](C(N)=O)[C@@H](C)O)NC(=O)[C@H](CCCCN)NC(=O)CNC(=O)[C@H](CCCNC(=N)N)NC(=O)[C@H](Cc2ccc(O)cc2)NC3=O)NC1=O` [SNX-157] (H-CRSSGS[Hyp]CGVTSICCGRCYRGKCT-NH2; disulfide 1-15, 8-18, 14-23), the “IC50 for calcium current (in words)” value is listed as “not measurable within the range of concentrations tested”.

Values taken from US6054429A (priority 1996, dated 2000).
